As usually defined, the EC50 is the midpoint of the concentration-response curve. By hepatocyte CLint is commonly meant a measure of how fast metabolising enzymes remove a compound, apart from limits set by blood flow. Higher therefore signals rapid turnover. A word on the half-life: it is the time needed for the level to fall by half in the phase considered.

Several values for one entry are separate records, joined by “and”; a condition that tells them apart may be missing. Identical values can stand only once. Like-named read-outs stand apart in the source and are kept apart here.

The values below come from article PMC10906247, “From Functional Fatty Acids to Potent and Selective Natural-Product-Inspired Mimetics via Conformational Profiling” (ACS Central Science, 2024).

One data set addresses GPR40 (FFAR1) (Homo sapiens, UniProt O14842). Put plainly: PathHunter β-arrestin assay (Eurofins Discovery), GPR40. The class given is cell-based. The following applies: for GPR40 max. efficacy: oleic acid = 100. The method, then:
(§1) With these compounds in hand, attention was directed at evaluating their properties as ligands to GPR40, GPR120,[24] and TLX. Initial profiling experiments were conducted targeting the GPCR targets at a single concentration (15 μM) in a commercially available β-arrestin assay.
(§2) Functional assays at GPR40 and GPR120 were conducted by Eurofins Discovery services using their PathHunter® b-Arrestin assay that monitors the activation of a GPCR in a homogenous, non-imaging assay format using a technology developed by DiscoverX called Enzyme Fragment Complementation (EFC) with b-galactosidase (b-Gal) as the functional reporter. b-Arrestin GPCR cell lines built on the principles of EFC are engineered to co-express the ProLinkTM (PK) tagged GPCR and the Enzyme Acceptor (EA) tagged b-Arrestin. Activation of the GPCR-PK induces b-Arrestin-EA recruitment, forcing complementation of the two b-galactosidase enzyme fragments (EA and PK). The resulting functional enzyme hydrolyzes substrate to generate chemiluminescent […]
(§3) Additional information can be found at: www.eurofinsdiscovery.com/solution/b-arrestin Below are dose-response curves generated from Eurofins Discovery services for activity of ligands depicted in Figure 6B at GPR40 (FFAR1) and GPR120. […]

In data set [1] the target is T1, GPR120 (Homo sapiens, UniProt Q5NUL3).
T1 sequence (Q5NUL3 1-361): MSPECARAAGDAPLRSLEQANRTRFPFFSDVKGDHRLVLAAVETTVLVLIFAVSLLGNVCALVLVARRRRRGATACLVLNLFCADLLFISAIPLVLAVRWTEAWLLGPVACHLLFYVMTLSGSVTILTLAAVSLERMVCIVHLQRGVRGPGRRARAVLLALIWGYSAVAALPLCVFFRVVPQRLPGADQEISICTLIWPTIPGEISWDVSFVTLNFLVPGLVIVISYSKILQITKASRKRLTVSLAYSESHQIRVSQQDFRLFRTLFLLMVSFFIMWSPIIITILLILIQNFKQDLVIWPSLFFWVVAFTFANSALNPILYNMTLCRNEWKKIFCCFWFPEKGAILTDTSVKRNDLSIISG
Put plainly: PathHunter β-arrestin assay (Eurofins Discovery), GPR120. Conditions: for GPR120 max. efficacy: oleic acid = 100. The data set is classed as cell-based. The method, then: as §1, §2, §3

The target in data set [2] is T2, TLX ligand binding domain (Homo sapiens, UniProt Q9Y466).
T2 construct: purchased NovAliX SAS, Strasbourg, France
Put plainly: TLX ligand sensing assay (AlphaScreen, RIP140 NR box peptide recruitment). The data set is classed as biochemical. In general terms: In Alpha technology, singlet oxygen from a donor bead excites a nearby acceptor bead.

Data set [3] in a line: Metabolic stability / intrinsic clearance in cryopreserved human hepatocytes. The protocol: To gain insight into potential metabolic issues, a preliminary assessment of 1-E and 3-C in a metabolic stability assay utilizing human hepatocytes was conducted.
7.1. ADME-Tox: In Vitro Metabolism
Intrinsic clearance (cr yopreserved hepatocytes, human)
Note: Unit of Clint is µ L/min/mg for microsomes, S9 and UGT assa ys; µL/min/pmol for CYP assays; µ L/min/Million cells for hepatocyte assays […]
8.1. Experimental Conditions
8.1.1. ADME-Tox: In Vitro Metabolism
8.2. Analysis and expression of results
8.2.1. ADME-Tox: In Vitro Metabolism
Intrinsic Clearance (microsomes, S9, cryopreserved hepatocytes, reco mbinant CYP, recombinant UGT) Metabolic stability, expressed as percent of the parent compound remaining , was calculated by comparing the peak area of the compound at the time point relative to that at time -0. The ha lf-life (T1/2) was estimated from the slope of the initial linear range of the logarithmic curve of compound remaining (%) vs. time, assu ming the first -order kinetics. The apparent intrinsic cleara nce (CLint, in µL/min/pmol, µL/min/mg or µL/min/Mcell ) was calculated according to the following formula: […]
T1/2*(mg protein/µL or million cells/µL or pmol CYP iso zyme/µL)

The next data set concerns GPR40. The following applies: read-out: GPR40 EC50 historical, cited from earlier work.
For another data set, the system named is MIN6 cells. The arrangement: method as in PMID 12629551, PMID 12496284. The following applies: cited from earlier work.
Data set [4] has as its target T1, GPR120. The following applies: read-out: GPR120 EC50 historical; oleic acid; cited from earlier work.
Where [5] appears, read: dose-response, β-arrestin assay, read-out: GPR40 EC50 measured.
[6] abbreviates: ALPHA normalized, supplement, read-out: TLX EC50 (dose-response curves).

Chain of GPR40 (FFAR1) (O14842 whole entry): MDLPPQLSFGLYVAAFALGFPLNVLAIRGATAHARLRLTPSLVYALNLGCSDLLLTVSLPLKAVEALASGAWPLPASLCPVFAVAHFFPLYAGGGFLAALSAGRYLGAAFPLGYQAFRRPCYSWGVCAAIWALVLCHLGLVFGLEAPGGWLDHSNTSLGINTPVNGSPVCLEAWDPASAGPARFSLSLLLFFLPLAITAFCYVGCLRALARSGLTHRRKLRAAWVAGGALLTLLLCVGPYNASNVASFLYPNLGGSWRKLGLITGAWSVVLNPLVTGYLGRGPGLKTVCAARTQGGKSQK
T2 sequence (Q9Y466 155-383 limits assumed): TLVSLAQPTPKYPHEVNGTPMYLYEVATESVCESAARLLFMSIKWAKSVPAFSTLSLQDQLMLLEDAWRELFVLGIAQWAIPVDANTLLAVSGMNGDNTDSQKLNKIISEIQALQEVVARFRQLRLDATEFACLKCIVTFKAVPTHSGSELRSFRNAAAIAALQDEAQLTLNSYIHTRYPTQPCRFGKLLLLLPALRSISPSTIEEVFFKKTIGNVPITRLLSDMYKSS

For the compound `CCCCCCCCC[C@H](C)/C=C(/C)C/C(C)=C/[C@H](C)CC(=O)O` [1-E], the “GPR40 potency relative to oleic acid” value on GPR40 (FFAR1) (EC50 ratio vs control oleic acid) was 14 times. Moreover, the 50% effective concentration (EC50) was 2600 nM on GPR40 (FFAR1) (setting [5]); > 47000 nM on GPR120 [1] (dose-response, β-arrestin assay, read-out: GPR120 EC50 measured); 1680 nM in data set [2] (setting [6]). At GPR40 (FFAR1) (dose-response), this compound came in with a GPR40 max. efficacy of 75%. At GPR120 [1] (maximal efficacy measured at 100 μM), this compound gave a GPR120 max. efficacy of 32%. The “Half-life, single replicates (1st, 2nd, 3rd)” value in data set [3] (human hepatocytes, 1.0E-06 M, listed as GCM/LEM 1-E) was 3.445 h and 2.168 h and 4.453 h. The hepatocyte CLint at 1 µM in data set [3] (human, cryopreserved human hepatocytes) is 5.4 µL/min/1e6 cells. Further, the half-life at 1 µM in data set [3] (human, cryopreserved human hepatocytes, Half-life (mean), human hepatocytes, 1.0E-06 M) turned out to be 3.35 h. For the same compound, the “% Compound Remaining, mean” value is on record as 96 % remaining in data set [3] (incubation 30 minutes, 1.0E-06 M); 98 % remaining in data set [3] (incubation 60 minutes, 1.0E-06 M); 85 % remaining in data set [3] (incubation 90 minutes, 1.0E-06 M); 61 % remaining in data set [3] (incubation 120 minutes, 1.0E-06 M). For the same compound, the “% Compound Remaining, single replicates (1st, 2nd, 3rd)” value is 99.4 % remaining and 103.0 % remaining and 86.6 % remaining in data set [3] (incubation 30 minutes, 1.0E-06 M, listed as GCM/LEM 1-E); 83.9 % remaining and 103.8 % remaining and 106.9 % remaining in data set [3] (incubation 60 minutes, 1.0E-06 M, listed as GCM/LEM 1-E); 79.1 % remaining and 80.4 % remaining and 96.1 % remaining in data set [3] (incubation 90 minutes, 1.0E-06 M, listed as GCM/LEM 1-E); 67.8 % remaining and 50.9 % remaining and 64.3 % remaining in data set [3] (incubation 120 minutes, 1.0E-06 M, listed as GCM/LEM 1-E).
With `O=C(O)CCc1ccc(NCc2cccc(Oc3ccccc3)c2)cc1` [GW9508, reference compound], the 50% effective concentration (EC50) at GPR40 (FFAR1) (setting [5]) was 1000 nM; on GPR40 (FFAR1) (three independent assays behind the average, read-out: GPR40 EC50, independent assays), 1500 nM and 980 nM and 700 nM; with GPR40 (GW9508), 47 nM. Also, the GPR40 max. efficacy on GPR40 (FFAR1) (dose-response) came out at 229%. The same compound displayed a GPR120 max. efficacy on GPR120 [1] (dose-response) of 87%.
Turning to `CCCCCCCC/C=C\CCCCCCCC(=O)O` [oleic acid, reference compound], the EC50 at GPR40 (FFAR1) (GPR40 EC50 measured) is 37000 nM; at GPR120 [1] (GPR120 EC50 measured), 15000 nM; in data set [2], 3550 nM; in data set [2] (setting [6]) it was 3550 nM; in data set [2] (coactivator recruitment, read-out: TLX EC50), 3600 nM; in the data set with GPR40 (oleic acid, stimulatory activity on CHO-mGPR40 cells), 2000 nM. Further, the EC50 on GPR120 [4] is 12000 nM. The compound further gave a GPR40 max. efficacy on GPR40 (FFAR1) (dose-response) of 100%. For the same compound, the “right shift of GPR40 result relative to reported historical activity” value at GPR40 (FFAR1) (measured vs historical EC50) is ~20 fold. Also, the GPR120 max. efficacy on GPR120 [1] (dose-response) is on record as 100%. Further, the “enhanced recruitment of a coactivator protein fragment” value in data set [2] worked out at 8.4 fold. In addition, the TLX max. efficacy in data set [2] (oleic acid = 100) is 100%. The “concentration inducing insulin secretion” value with MIN6 cells is ≥ 1 µM.
